Experimental data reported in patent US20220267308A1, “Modulators of Excitatory Amino Acid Transporters and Methods Using Same” (The Wistar Institute of Anatomy and Biology, priority 2019, published 2022).
Like-named read-outs stand apart in the source and are kept apart here.

Columns and labels:
cortical neurons [1] = assay: neuroprotection in neuronal cultures, bi-laminar approach, OGD insult; assay type: cell-based; details: OGD for 20 min
Description: (§1) Top: Representative images (40× magnification) of 14 DIV cortical neurons in control conditions (FIG. 2A) or subjected to insult with 10 μM L-glutamate for 24 h (FIG. 2B). […] Bottom: Representative images of cortical neurons in control conditions (FIG. 2D) or subjected to insult with OGD for 20 min (FIG. 2E). […] Quantification performed 24 h after treatments in cultures stained for MAP-2 (green) and DAPI (blue). Surviving neurons were estimated by blind counting of 10 fields/coverslips, averages of triplicate determinations±SD (ANOVA followed by Dunnet's posthoc test, *p<0.05, **<0.01, p***<0.001, compared to control, #p<0.05, ###p<0.001, compared to insult).

cortical neurons [2] = assay: neuroprotection in neuronal cultures, bi-laminar approach, L-glutamate insult; assay type: cell-based; details: 10 μM L-glutamate for 24 h
Description: as §1

[3] = SNL (spinal nerve ligation) model; details: p<0.01 compared to vehicle
EAAT3 = biological target: T1, EAAT3 (Homo sapiens, UniProt P43005); assay: glutamate uptake mediated by EAAT3-expressing COS-7 cells; assay type: cell-based; details: for EAAT3 EC50 (nM): top number of the cell
T1 construct: expressed in transfected cells; host or cells: COS-7
T1 sequence (P43005 1-524): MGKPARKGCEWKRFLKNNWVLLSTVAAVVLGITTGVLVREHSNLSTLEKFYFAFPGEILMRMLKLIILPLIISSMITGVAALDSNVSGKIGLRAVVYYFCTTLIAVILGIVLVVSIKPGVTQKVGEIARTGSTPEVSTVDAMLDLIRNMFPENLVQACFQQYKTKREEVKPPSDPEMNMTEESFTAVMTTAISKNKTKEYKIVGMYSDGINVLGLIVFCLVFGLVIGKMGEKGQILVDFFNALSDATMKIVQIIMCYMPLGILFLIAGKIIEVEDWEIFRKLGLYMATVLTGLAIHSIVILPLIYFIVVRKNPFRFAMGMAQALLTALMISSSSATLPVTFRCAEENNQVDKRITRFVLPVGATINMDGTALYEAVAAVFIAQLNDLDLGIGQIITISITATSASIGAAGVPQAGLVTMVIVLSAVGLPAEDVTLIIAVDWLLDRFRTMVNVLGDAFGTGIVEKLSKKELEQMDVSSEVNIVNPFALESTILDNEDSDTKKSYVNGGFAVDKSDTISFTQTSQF

EAAT1 = biological target: T2, EAAT1 (Homo sapiens, UniProt P43003); assay: glutamate uptake mediated by EAAT1-expressing COS-7 cells; assay type: cell-based; details: for EAAT1 Efficacy: bottom number of the cell
T2 construct: expressed in transfected cells; host or cells: COS-7
T2 sequence (P43003 whole entry, the tested form may be a part): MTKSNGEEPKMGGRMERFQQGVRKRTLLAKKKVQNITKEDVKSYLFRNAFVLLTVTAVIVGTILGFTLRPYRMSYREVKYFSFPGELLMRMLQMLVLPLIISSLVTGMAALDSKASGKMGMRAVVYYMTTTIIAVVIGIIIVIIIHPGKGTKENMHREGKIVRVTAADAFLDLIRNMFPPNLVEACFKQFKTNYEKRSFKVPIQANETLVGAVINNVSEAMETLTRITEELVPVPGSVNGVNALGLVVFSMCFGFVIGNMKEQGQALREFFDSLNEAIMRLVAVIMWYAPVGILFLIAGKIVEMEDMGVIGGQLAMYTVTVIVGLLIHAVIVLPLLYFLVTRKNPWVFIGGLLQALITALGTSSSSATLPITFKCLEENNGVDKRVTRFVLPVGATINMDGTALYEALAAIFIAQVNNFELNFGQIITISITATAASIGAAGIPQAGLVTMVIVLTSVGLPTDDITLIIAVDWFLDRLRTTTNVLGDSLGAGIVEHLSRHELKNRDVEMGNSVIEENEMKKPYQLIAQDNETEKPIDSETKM

EAAT2 [4] = biological target: T3, EAAT2 (Homo sapiens, UniProt P43004); assay: glutamate uptake mediated by EAAT2-expressing COS-7 cells; details: for EAAT2 Efficacy: bottom number of the cell
T3 sequence (P43004 whole entry, the tested form may be a part): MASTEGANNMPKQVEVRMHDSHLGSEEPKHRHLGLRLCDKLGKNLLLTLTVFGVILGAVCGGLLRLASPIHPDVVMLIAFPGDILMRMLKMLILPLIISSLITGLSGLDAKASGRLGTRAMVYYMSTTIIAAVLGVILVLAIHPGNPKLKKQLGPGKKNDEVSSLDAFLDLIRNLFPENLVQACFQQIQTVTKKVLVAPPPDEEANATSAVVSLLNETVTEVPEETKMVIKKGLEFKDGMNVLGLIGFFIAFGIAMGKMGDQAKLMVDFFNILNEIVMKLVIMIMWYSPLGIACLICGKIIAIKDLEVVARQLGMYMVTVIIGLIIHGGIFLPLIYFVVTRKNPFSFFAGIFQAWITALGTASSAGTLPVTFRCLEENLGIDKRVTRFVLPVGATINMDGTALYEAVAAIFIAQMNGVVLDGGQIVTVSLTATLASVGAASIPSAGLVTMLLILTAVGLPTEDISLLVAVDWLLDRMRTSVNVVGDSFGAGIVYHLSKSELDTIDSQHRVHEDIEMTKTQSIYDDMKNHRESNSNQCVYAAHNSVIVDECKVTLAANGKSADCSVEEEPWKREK

glia cells = details: for Km / Vmax: Glia
neuron-glia cultures = assay: neuroprotection in mixed neuron-glia cultures; assay type: cell-based, rat
Text: Immunostaining against neuronal marker MAP-2 (green), glial maker GFAP (red), and nuclear marker DAPI (blue). Surviving neurons were estimated by blind counting of 10 fields/coverslips, averages of triplicate determinations±SD (ANOVA followed by Dunnet's posthoc test, ***p<0.001, compared to control, ###p<0.001, compared to insult). FIGS. 7A-7E show the in vitro neuroprotective properties of second and third generation compounds after glutamate and oxygen glucose deprivation insults in mixed neuron/glia cultures. […] Immunostaining against neuronal marker MAP-2 (green), glial maker GFAP (red), and nuclear marker DAPI (blue). Images taken with 30× magnification with a confocal microscope.

[5] = pilocarpine in vivo model of epilepsy; details: osmotic pump 48 hours, final dose 4 mg/Kg, after pilocarpine 380 mg/Kg; p=0.0189
EAAT2 [6] = biological target: T3, EAAT2; assay: kinetic analysis of L-glutamate uptake in EAAT2-transfected COS-7 cells; assay type: cell-based; parameters: expressed in transfected cells; host or cells: COS-7; details: compound 10 nM, different concentrations of glutamate

## NC(CCCP(=O)(O)O)C(=O)O (racemic) [APV, (DL)-2-amino-5-phosphonovaleric acid, reference compound]
Cortical neurons [1]; compound 100 μM
  cell death / surviving neurons: attenuated cell death
Cortical neurons [2]; compound 100 μM
  cell death / surviving neurons: attenuate cell death

## NCC1(CC(=O)O)CCCCC1 [Gabapentin, reference compound]
[3]; 200 mg/kg
  analgesic response: analgesic response

## CN1CCN(C(c2ccc(O)nc2)c2nnnn2CCc2ccccc2)CC1 (centres unmarked) [VY-3-286, 5-((4-methylpiperazin-1-yl)(1-phenethyl-1H-tetrazol-5-yl)methyl)pyridin-2-ol]
EAAT3; bottom number of the cell
  EAAT3 Efficacy: 130.50 ± 2.12%
EAAT1
  EAAT1 Efficacy: 160.25 ± 27.22%

## CN1CCN(C(c2ccc(F)nc2)c2nnnn2CCc2ccccc2)CC1 (centres unmarked) [VY-3-285, 1-((6-fluoropyridin-3-yl)(1-phenethyl-1H-tetrazol-5-yl)methyl)-4-methylpiperazine]
EAAT1
  EAAT1 Efficacy: 2.75 ± 3.18 222 ± 55.72%

## CN1CCN(C(C(=O)NCCc2ccc(F)cc2)c2cccnc2)CC1 (centres unmarked) [NA-005, N-(4-fluorophenethyl)-2-(4-methylpiperazin-1-yl)-2-(pyridin-3-yl)acetamide]
EAAT1
  EAAT1 Efficacy: 189 ± 9.89%

## COc1ccc2[nH]c(=O)c(C(c3nnnn3CCc3ccccc3)N3CCN(C4CCCCC4)CC3)cc2c1 (centres unmarked) [GT949]
Cortical neurons [2]; compound 10 nM
  cell death / surviving neurons: attenuate cell death

## CN1CCN(C(c2ccncc2)c2nnnn2CCc2ccccc2)CC1 (centres unmarked) [DA-058, 1-methyl-4-((1-phenethyl-1H-tetrazol-5-yl)(pyridin-4-yl)methyl)piperazine]
EAAT2 [4]
  EC50: 0.4 ± 0.42 nM
  EAAT2 Efficacy: 200.50 ± 58.60%
EAAT3
  EAAT3 EC50 (nM): No Effect
EAAT1
  EAAT1 Efficacy: 186.0 ± 41.01%
EAAT1; top number of the cell
  EC50: 2.24 ± 1.07 nM

## COc1ccc(C(c2nnnn2CCc2ccccc2)N2CCN(C3CCCCC3)CC2)cc1OC (centres unmarked) [DA-050, 1-cyclohexyl-4-((3,4-dimethoxyphenyl)(1-phenethyl-1H-tetrazol-5-yl)methyl)piperazine]
EAAT2 [4]
  EC50: 0.5 ± 0.56 nM
  EAAT2 Efficacy: 261.50 ± 40.30%
EAAT3
  EAAT3 EC50 (nM): No Effect
EAAT1
  EAAT1 Efficacy: 150.00 ± 21.21%
EAAT1; top number of the cell
  EC50: 46 ± 36.8 nM

## CN1CCN(C(C(=O)NCCc2ccc(F)cc2)c2ccc(C#N)cc2)CC1 (centres unmarked) [NA-014, 2-(4-cyanophenyl)-N-(4-fluorophenethyl)-2-(4-methylpiperazin-1-yl)acetamide]
Glia cells; NA-014 100 nM
  Km: 52.5 ± 5.82 µM
  Vmax: 42.35 ± 1.44 pmol/well/min
Glia cells; NA-014 500 nM
  Km: 49.8 ± 8.3 µM
  Vmax: 72.76 ± 3.67 pmol/well/min
Glia cells; cultured glia cells pre-incubated with 100 nM and 500 nM
  KM versus vehicle (in words): not statistically different
[3]; 10 mg/kg
  analgesic response: analgesic response
EAAT3
  EAAT3 EC50 (nM): No Effect
neuron-glia cultures; 100 μM L-glutamate for 24 h, co-treatment with 100 nM compound
  neuronal survival: neuroprotective effect
neuron-glia cultures; L-glutamate insult, compound plus TBOA
  neuronal survival with co-application of EAAT inhibitor TBOA: abolished by co-application of EAAT inhibitor TBOA
EAAT1; top number of the cell
  EAAT1 EC50 (nM): No Effect

## CN1CCN(C(c2cccnc2)c2nnnn2CCc2ccccc2)CC1 (centres unmarked) [DA-023, 1-methyl-4-((1-phenethyl-1H-tetrazol-5-yl)(pyridin-3-yl)methyl)piperazine]
Cortical neurons [1]; compound 100 nM
  cell death / surviving neurons: attenuated cell death
[5]
  neuronal death (FJC+ cell numbers) in the hilus: significant reduction in the neuronal death
Cortical neurons [2]; compound 10 nM
  cell death / surviving neurons: attenuate cell death
EAAT2 [4]; EAAT2-expressing COS-7 cells
  potency on transport augmentation (dose response curve): nM range
EAAT2 [4]; EAAT2-expressing COS-7 cells, dose response curve
  efficacy on transport augmentation: < 150%
EAAT2 [6]
  effect on KM (affinity for the substrate): no effect on KM
  effect on Vmax (in words): increase in Vmax
